pIC50: −log10 of the molar value.
test system: NCI-H460 cells; test: Proliferation assay, crystal violet staining; settings: Homo sapiens, NCI-H460, 96 h, read-out: Inhibition of NCI-H460 cell proliferation, NCI-H460 cells, 4 days incubation
Method: (§1) After 24 hours, the cells of one plate (zero plate) were dyed with crystal violet (see below), whereas the medium of the other plates was replaced with fresh culture medium (200 μl) to which the test substances were added in various concentrations (0 μM, and also in the range of 0.001-10 μM; the final concentration of the solvent dimethyl sulphoxide was 0.1 or 0.5%). The cells were incubated for 4 days in the presence of the test substances. […] After washing the fixed cells three times with water, the plates were dried at room temperature. The cells were stained by adding 100 μl/measurement point of a 0.1% strength crystal violet solution (pH adjusted to pH 3 by adding acetic acid). After washing the cells three times with water, the plates were dried at room temperature. The dye was dissolved by adding 100 μl/measurement point of a 10% strength acetic acid solution. […] The percentage change in cell growth was calculated by normalizing the measured values to the absorbance values of the zero plate (=0%) and the absorbance of the untreated (0 W) cells (=100%). The IC50 values were determined by means of a four parameter fit.

Row | pIC50 | Structure (SMILES)
1 | 6.40 | CS(=O)(=O)C1(c2cc(N3CCOCC3)nc3c(-c4ccn[nH]4)nccc23)CC1 [Example 39, 4-(1-methanesulphonycyclopropyl)-2-(morpholin-4-yl)-8-(2H-pyrazol-3-yl)-[1,7]naphthyridine]
2 | 6.43 | C[C@@H]1COCCN1c1cc(OCCCCN)c2ccnc(-c3ccn[nH]3)c2n1 [Example 57, 4-({2-[(3R)-3-methylmorpholin-4-yl]-8-(1H-pyrazol-5-yl)-1,7-naphthyridin-4-yl}oxy)butan-1-amine]
3 | < 5.52 | Clc1cc(N2CCOCC2)nc2c(-c3cc[nH]n3)nccc12 [Example 62, 4-chloro-2-morpholin-4-yl-8-(1H-pyrazol-3-yl)-[1,7]naphthyridine]
4 | 6.90 | C[C@@H]1COCCN1c1cc(N2CCNCC2)c2ccnc(-c3ccn[nH]3)c2n1 [Example 66, 2-[(3R)-3-methylmorpholin-4-yl]-4-(piperazin-1-yl)-8-(1H-pyrazol-5-yl)-1,7-naphthyridine]

test system: Caco-2 cells; test: Proliferation assay, crystal violet staining; type: cell-based; settings: Homo sapiens, Caco-2, 96 h, 4 days incubation, read-out: Inhibition of Caco-2 cell proliferation
Method: as §1

Row | pIC50 | Structure (SMILES)
5 | 5.47 | C[C@@H]1COCCN1c1cc(N2CCNCC2)c2ccnc(-c3ccn[nH]3)c2n1 [Example 66, 2-[(3R)-3-methylmorpholin-4-yl]-4-(piperazin-1-yl)-8-(1H-pyrazol-5-yl)-1,7-naphthyridine]

test system: HeLa cells; test: Proliferation assay, crystal violet staining; settings: Homo sapiens, 96 h, read-out: Inhibition of HeLa cell proliferation, HeLa cells, 4 days incubation

Row | pIC50 | Structure (SMILES)
6 | 5.98 | CS(=O)(=O)C1(c2cc(N3CCOCC3)nc3c(-c4ccn[nH]4)nccc23)CC1 [Example 39, 4-(1-methanesulphonycyclopropyl)-2-(morpholin-4-yl)-8-(2H-pyrazol-3-yl)-[1,7]naphthyridine]
7 | 6.79 | Clc1cc(N2CCOCC2)nc2c(-c3cc[nH]n3)nccc12 [Example 62, 4-chloro-2-morpholin-4-yl-8-(1H-pyrazol-3-yl)-[1,7]naphthyridine]
8 | < 5.52 | Clc1ccc(-c2cc(N3CCOCC3)nc3c(-c4ccn[nH]4)nccc23)cc1 [Example 316, 4-(4-chlorophenyl)-2-(morpholin-4-yl)-8-(1H-pyrazol-5-yl)-1,7-naphthyridine]
9 | 5.53 | COc1cccc(-c2cc(N3CCOCC3)nc3c(-c4ccn[nH]4)nccc23)c1F [Example 317, 4-(2-fluoro-3-methoxyphenyl)-2-(morpholin-4-yl)-8-(1H-pyrazol-5-yl)-1,7-naphthyridine]
10 | 5.70 | Cc1ccccc1-c1cc(N2CCOCC2)nc2c(-c3ccn[nH]3)nccc12 [Example 318, 4-(2-methylphenyl)-2-(morpholin-4-yl)-8-(1H-pyrazol-5-yl)-1,7-naphthyridine]
11 | < 5.52 | CN(C)c1cccc(-c2cc(N3CCOCC3)nc3c(-c4ccn[nH]4)nccc23)c1 [Example 320, N,N-dimethyl-3-[2-(morpholin-4-yl)-8-(1H-pyrazol-5-yl)-1,7-naphthyridin-4-yl]aniline]
12 | < 5.52 | CN(C)c1ccccc1-c1cc(N2CCOCC2)nc2c(-c3ccn[nH]3)nccc12 [Example 321, N,N-dimethyl-2-[2-(morpholin-4-yl)-8-(1H-pyrazol-5-yl)-1,7-naphthyridin-4-yl]aniline]
13 | < 5.52 | CS(=O)(=O)Nc1ccccc1-c1cc(N2CCOCC2)nc2c(-c3ccn[nH]3)nccc12 [Example 322, N-{2-[2-(morpholin-4-yl)-8-(1H-pyrazol-5-yl)-1,7-naphthyridin-4-yl]phenyl}methanesulfonamide]
14 | 5.65 | CS(=O)(=O)Nc1ccc(-c2cc(N3CCOCC3)nc3c(-c4ccn[nH]4)nccc23)cc1 [Example 323, N-{4-[2-(morpholin-4-yl)-8-(1H-pyrazol-5-yl)-1,7-naphthyridin-4-yl]phenyl}methanesulfonamide]
15 | 5.62 | CN(C)C(=O)c1ccc(-c2cc(N3CCOCC3)nc3c(-c4ccn[nH]4)nccc23)cc1 [Example 324, N,N-dimethyl-4-[2-(morpholin-4-yl)-8-(1H-pyrazol-5-yl)-1,7-naphthyridin-4-yl]benzamide]
16 | 6.00 | C/C=C/c1cc(N2CCOCC2)nc2c(-c3ccn[nH]3)nccc12 [Example 325, 2-(morpholin-4-yl)-4-[(1E)-prop-1-en-1-yl]-8-(1H-pyrazol-5-yl)-1,7-naphthyridine]
17 | 5.53 | Oc1ccc(-c2cc(N3CCOCC3)nc3c(-c4ccn[nH]4)nccc23)cc1 [Example 326, 4-[2-(morpholin-4-yl)-8-(1H-pyrazol-5-yl)-1,7-naphthyridin-4-yl]phenol]
18 | 5.72 | Fc1ccccc1-c1cc(N2CCOCC2)nc2c(-c3ccn[nH]3)nccc12 [Example 327, 4-(2-fluorophenyl)-2-(morpholin-4-yl)-8-(1H-pyrazol-5-yl)-1,7-naphthyridine]
19 | < 5.52 | O=C(NC1CC1)c1cccc(-c2cc(N3CCOCC3)nc3c(-c4ccn[nH]4)nccc23)c1 [Example 330, N-cyclopropyl-3-[2-(morpholin-4-yl)-8-(1H-pyrazol-5-yl)-1,7-naphthyridin-4-yl]benzamide]
20 | < 5.52 | COc1ccc(-c2cc(N3CCOCC3)nc3c(-c4ccn[nH]4)nccc23)c(OC)c1 [Example 332, 4-(2,4-dimethoxyphenyl)-2-(morpholin-4-yl)-8-(1H-pyrazol-5-yl)-1,7-naphthyridine]
21 | < 5.52 | Clc1ccccc1-c1cc(N2CCOCC2)nc2c(-c3ccn[nH]3)nccc12 [Example 333, 4-(2-chlorophenyl)-2-(morpholin-4-yl)-8-(1H-pyrazol-5-yl)-1,7-naphthyridine]
22 | < 5.52 | Cc1ccc(C)c(-c2cc(N3CCOCC3)nc3c(-c4ccn[nH]4)nccc23)c1 [Example 334, 4-(2,5-dimethylphenyl)-2-(morpholin-4-yl)-8-(1H-pyrazol-5-yl)-1,7-naphthyridine]
23 | 5.53 | Nc1cccc(-c2cc(N3CCOCC3)nc3c(-c4ccn[nH]4)nccc23)c1 [Example 335, 3-[2-(morpholin-4-yl)-8-(1H-pyrazol-5-yl)-1,7-naphthyridin-4-yl]aniline]
24 | 5.77 | Oc1cccc(-c2cc(N3CCOCC3)nc3c(-c4ccn[nH]4)nccc23)c1 [Example 337, 3-[2-(morpholin-4-yl)-8-(1H-pyrazol-5-yl)-1,7-naphthyridin-4-yl]phenol]
25 | < 5.52 | COc1ccc(F)cc1-c1cc(N2CCOCC2)nc2c(-c3ccn[nH]3)nccc12 [Example 339, 4-(5-fluoro-2-methoxyphenyl)-2-(morpholin-4-yl)-8-(1H-pyrazol-5-yl)-1,7-naphthyridine]
26 | 5.53 | Fc1ccc(-c2cc(N3CCOCC3)nc3c(-c4ccn[nH]4)nccc23)c(F)c1 [Example 340, 4-(2,4-difluorophenyl)-2-(morpholin-4-yl)-8-(1H-pyrazol-5-yl)-1,7-naphthyridine]
27 | 5.80 | Fc1cccc(-c2cc(N3CCOCC3)nc3c(-c4ccn[nH]4)nccc23)c1F [Example 341, 4-(2,3-difluorophenyl)-2-(morpholin-4-yl)-8-(1H-pyrazol-5-yl)-1,7-naphthyridine]
28 | 5.77 | Nc1ccccc1-c1cc(N2CCOCC2)nc2c(-c3ccn[nH]3)nccc12 [Example 343, 2-[2-(morpholin-4-yl)-8-(1H-pyrazol-5-yl)-1,7-naphthyridin-4-yl]aniline]
29 | < 5.52 | c1ccc(-c2ccccc2-c2cc(N3CCOCC3)nc3c(-c4ccn[nH]4)nccc23)cc1 [Example 345, 4-(biphenyl-2-yl)-2-(morpholin-4-yl)-8-(1H-pyrazol-5-yl)-1,7-naphthyridine]
30 | < 5.52 | c1cc(-c2cc(N3CCOCC3)nc3c(-c4ccn[nH]4)nccc23)c2cccnc2c1 [Example 349, 2-(morpholin-4-yl)-8-(1H-pyrazol-5-yl)-4-(quinolin-5-yl)-1,7-naphthyridine]
31 | < 5.52 | c1cncc(-c2cc(N3CCOCC3)nc3c(-c4ccn[nH]4)nccc23)c1 [Example 350, 2-(morpholin-4-yl)-8-(1H-pyrazol-5-yl)-4-(pyridin-3-yl)-1,7-naphthyridine]
32 | 5.52 | COc1cc(-c2cc(N3CCOCC3)nc3c(-c4ccn[nH]4)nccc23)ccn1 [Example 351, 4-(2-methoxypyridin-4-yl)-2-(morpholin-4-yl)-8-(1H-pyrazol-5-yl)-1,7-naphthyridine]

test system: DU145 cells; test: Proliferation assay, crystal violet staining; settings: Homo sapiens, DU-145, 96 h, read-out: Inhibition of DU145 cell proliferation, DU145 cells, 4 days incubation
Method: as §1

Row | pIC50 | Structure (SMILES)
33 | 6.08 | CS(=O)(=O)C1(c2cc(N3CCOCC3)nc3c(-c4ccn[nH]4)nccc23)CC1 [Example 39, 4-(1-methanesulphonycyclopropyl)-2-(morpholin-4-yl)-8-(2H-pyrazol-3-yl)-[1,7]naphthyridine]
34 | 5.81 | C[C@@H]1COCCN1c1cc(OCCCCN)c2ccnc(-c3ccn[nH]3)c2n1 [Example 57, 4-({2-[(3R)-3-methylmorpholin-4-yl]-8-(1H-pyrazol-5-yl)-1,7-naphthyridin-4-yl}oxy)butan-1-amine]
